Measured values from publication PMC10388362, “Fluorescent Ligands Enable Target Engagement Studies for the Intracellular Allosteric Binding Site of the Chemokine Receptor CXCR2” (Journal of Medicinal Chemistry, 2023).
Where “and” joins values, the source holds several entries; their conditions need not be identical. Identical values can stand only once.

Columns and labels:
CXCR2 [1] = molecular target: T1, CXCR2 (Homo sapiens, UniProt P25025); test: Membrane-based NanoBRET saturation assay (CXCR2_Nluc membranes); assay type: binding; conditions: cell-free, membranes from HEK293T cells transiently expressing CXCR2_Nluc; read-out: Kd (equilibrium saturation binding)
T1 construct: Promega pNLF1-C (Nluc) #CXCR20TN00; host or cells: HEK293T, transient transfection (PEI)
T1 sequence (P25025 1-360): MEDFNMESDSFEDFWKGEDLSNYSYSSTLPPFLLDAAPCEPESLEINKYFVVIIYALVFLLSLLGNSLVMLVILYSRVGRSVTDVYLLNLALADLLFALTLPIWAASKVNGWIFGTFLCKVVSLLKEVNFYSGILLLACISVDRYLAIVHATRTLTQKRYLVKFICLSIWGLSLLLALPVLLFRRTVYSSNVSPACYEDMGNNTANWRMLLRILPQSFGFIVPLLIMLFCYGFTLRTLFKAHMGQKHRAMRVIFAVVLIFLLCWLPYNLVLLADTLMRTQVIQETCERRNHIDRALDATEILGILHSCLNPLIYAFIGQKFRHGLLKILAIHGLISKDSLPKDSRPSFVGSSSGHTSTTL
Description: Membranes from HEK293T cells transiently expressing the respective GPCR were prepared as follows. The medium of the transfected cells was refreshed after 24 h before cells were harvested 48 h post-transfection. The growth medium was removed, and the cells were carefully washed with cold phosphate-buffered saline (10 mL per Ø 15 cm dish). The cells were detached with 15 mL of ice-cold Tris-EDTA buffer (10 mM Tris, 0.5 mM EDTA, 5.4 mM KCl, 140 mM NaCl, pH 7.4) and subsequently centrifuged with 218g for 8 min. The supernatant was removed and the cells were resuspended in 10 mL of Tris-EDTA buffer. The cells were lysed with an Ultraturrax (20,000 rpm) used five times for 5 s with a 25 s break on ice in between. The lysate was centrifuged at 50,830g for 18 min at 4 °C. The supernatant was discarded, and the pellet was homogenized in a membrane buffer (50 mM Tris, 1 mM EDTA, 5 mM MgCl2, 100 μg/mL bacitracin, 5 μg/mL soybean trypsin inhibitor, pH 7.4) with a glass-teflon homogenizer. Aliquots of 250 μL were shock-frozen in liquid nitrogen and directly stored at −80 °C. Finally, the protein concentration was determined using the Lowry method.[43]
For the establishment of our NanoBRET binding assay, we referred to a recently published protocol.[45] The fluorescent ligands (9a–c) were dissolved in DMSO (1 mM) and further diluted to varying concentrations in an assay buffer (50 mM Na2HPO4, 50 mM KH2PO4, pH 7.4, 1 mg/mL saponin, 5% FBS) and 5 μL of these dilutions were pipetted to a 384-well plate. To determine the total binding, 5 μL of the assay buffer was added to the corresponding wells, while 5 μL of a solution of 3 in the assay buffer (final assay concentration: 1 μM) was used to determine nonspecific binding. Then, 20 μL of the membrane preparations diluted in the assay buffer (2 μg total protein/well) were added and the plates were incubated for 90 min at 37 °C. Subsequently, 5 μL of a furimazine solution (Promega, Mannheim, Germany, final assay dilution: 1:5000) was added to each well (final assay volume: 35 μL) before measuring luminescence with a CLARIOstar microplate reader using 620/10 and 475/30 nm emission filters after 5 min of incubation in the dark. Bioluminescence resonance energy transfer (BRET) was determined as the ratio of acceptor fluorescence and donor luminescence. The algorithms for one-site saturation binding from PRISM9.5 (GraphPad) were utilized to analyze total, nonspecific, and specific binding. Specific binding signals were calculated as a difference of total and nonspecific binding. If required, netBRET values were calculated as the difference between total BRET values and the values obtained in the absence of a fluorescent ligand. For selectivity studies with CCR2, CCR7, CCR9, and CXCR1, we modified the procedure described above.

CXCR2 [2] = molecular target: T1, CXCR2; test: Live cell NanoBRET association and dissociation kinetic assay; assay type: binding; conditions: 37 °C
Description: HEK293T cells were transfected with the plasmid (5.5 μg) for CXCR2_Nluc using polyethylenimine (PEI) as the transfection reagent (PEI/DNA ratio 3:1). After 24 h at 37 °C and 5% CO2, the cells were detached with DMEM and transferred to a white F-bottom 384-well plate (10,000 cells/well), which was coated with 5 μL/well poly-D-lysine (0.1 mg/mL, dissolved in water), and incubated for further 24 h at 37 °C and 5% CO2. Subsequently, the cells were washed with phosphate-buffered saline (Gibco DPBS, with CaCl2 and MgCl2). 15 μL of the assay medium (Gibco DMEM/F12, 15 mM HEPES, no phenol red supplemented with 5% FBS) and 5 μL of vivazine (final assay dilution: 1:300 in the assay buffer) were added and the cells were incubated at 37 °C for 90 min. Then, 5 μL of the fluorescent ligand (9a), diluted to varying concentrations (final assay concentrations: 10–0.5 nM in the assay medium) was transferred to a 384-well plate. For the determination of nonspecific binding, we added a solution of the fluorescent ligand (9a) and a nonlabeled competitor dissolved in the assay medium (3, final assay concentration: 10 μM) instead. BRET ratios were measured with a CLARIOstar microplate reader using 620/10 and 475/30 nm emission filters over time. The obtained data were analyzed using the association kinetics (two or more conc. of hot ligand) algorithm in PRISM9.5 (GraphPad) to determine the association kinetics.
After running the association assay in cells for at least 133 min, 1 μL of an unlabeled competitor dissolved in the assay buffer (3, final assay concentration: 10 μM) was added. For control experiments, we added 1 μL of the assay medium instead of the competitor solution. BRET ratios were measured with a CLARIOstar microplate reader using 620/10 and 475/30 nm emission filters over time. Specific BRET ratios were calculated as a difference of total and nonspecific binding. The obtained data were analyzed using the dissociation one phase exponential decay algorithm in PRISM9.5 (GraphPad) to determine the dissociation kinetics.

[3] = cells, 9a 1 nM, single determinations
[4] = cells, 9a 5 nM, single determinations
[5] = cells, 9a 10 nM, single determinations
[6] = live HEK293T cells expressing CXCR2_Nluc, mean

Kd (CXCR2 [1]): 4.17 ± 0.8 nM
koff (CXCR2 [2]; [3]): 8.88e-05 s⁻¹
koff (CXCR2 [2]; [4]): 9.75e-05 s⁻¹
koff (CXCR2 [2]; [5]): 7.53e-05 s⁻¹
Kd (CXCR2 [2]; live HEK293T cells expressing CXCR2_Nluc): 0.2 ± 0.02 nM
koff (CXCR2 [2]; [6]): 0.000122 s⁻¹
kon (CXCR2 [2]; [6]): 620000 M⁻¹ s⁻¹
residence time tr (CXCR2 [2]; [6]): 146 ± 10 min
residence time (CXCR2 [2]; live HEK293T cells expressing CXCR2_Nluc, mean, read-out: residence time tr): 146 min
Structure (SMILES): Cc1ccc([C@H](Nc2c(Nc3cccc(C(=O)NCc4cn(CCOCCOCCOCCNC(=O)c5ccc(C(=O)[O-])c(-c6c7ccc(=[N+](C)C)cc-7oc7cc(N(C)C)ccc67)c5)nn4)c3O)c(=O)c2=O)C(C)(C)C)o1 [9a, (R)-4-((2-(2-(2-(2-(4-((3-((2-((2,2-Dimethyl-1-(5-methylfuran-2-yl)propyl)amino)-3,4-dioxocyclobut-1-en-1-yl)amino)-2-hydroxybenzamido)methyl)-1H-1,2,3-triazol-1-yl)ethoxy)ethoxy)ethoxy)ethyl)carbamoyl)-2-(6-(dimethylamino)-3-(dimethyliminio)-3H-xanthen-9-yl)benzoate]
koff [min-1] (CXCR2 [2]; [3]): 0.00837 min⁻¹ and 0.00621 min⁻¹ and 0.00861 min⁻¹
tr (CXCR2 [2]; [3]): 187.6 min and 119.5 min and 161.1 min and 116.1 min
koff [min-1] (CXCR2 [2]; [4]): 0.0072 min⁻¹ and 0.00855 min⁻¹ and 0.00476 min⁻¹
tr (CXCR2 [2]; [4]): 210.2 min and 170.9 min and 138.9 min and 117.0 min
koff [min-1] (CXCR2 [2]; [5]): 0.00791 min⁻¹ and 0.00898 min⁻¹ and 0.00859 min⁻¹
tr (CXCR2 [2]; [5]): 221.0 min and 126.4 min and 111.4 min and 116.4 min
